Data set [1] concerns the target T1, Multifunctional protein ADE2 (Gallus gallus, UniProt P38024).
T1 sequence (P38024 whole entry): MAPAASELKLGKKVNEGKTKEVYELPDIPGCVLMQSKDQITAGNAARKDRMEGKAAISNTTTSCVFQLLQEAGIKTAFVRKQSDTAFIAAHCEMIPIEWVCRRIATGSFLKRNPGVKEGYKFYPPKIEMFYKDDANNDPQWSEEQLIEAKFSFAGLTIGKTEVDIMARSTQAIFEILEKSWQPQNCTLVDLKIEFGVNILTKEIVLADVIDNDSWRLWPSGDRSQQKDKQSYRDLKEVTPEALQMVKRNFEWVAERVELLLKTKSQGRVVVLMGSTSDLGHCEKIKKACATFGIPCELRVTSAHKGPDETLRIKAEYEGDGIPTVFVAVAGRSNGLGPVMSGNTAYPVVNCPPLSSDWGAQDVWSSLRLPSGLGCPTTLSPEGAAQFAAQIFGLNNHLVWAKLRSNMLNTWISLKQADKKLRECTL
In words: Inhibition of Gallus gallus AIR carboxylase by CAIR decarboxylation assay.

Data set [2] in a line: Dissociation constant, pKa of the compound. It is filed as physicochemical.

As to `Nc1c(C(=O)O)nnn1[C@@H]1O[C@H](COP(=O)(O)O)[C@@H](O)[C@H]1O`, the inhibition constant (Ki) (usually a measure of affinity in units of concentration, obtained from inhibition or displacement) in data set [1] came out at 2.8 µM.

As to `Nc1c([N+](=O)[O-])ncn1[C@@H]1O[C@H](COP(=O)(O)O)[C@@H](O)[C@H]1O`, in data set [1], the Ki stood at 0.00034 µM. The pKa (as a rule, the pH at which an ionisable group is half protonated) in data set [2] worked out at 0.3.

For `O=[N+]([O-])c1cnn([C@@H]2O[C@H](COP(=O)(O)O)[C@@H](O)[C@H]2O)c1`, in data set [1], the Ki is 22 µM.

As to `Nc1c(C=O)ncn1[C@@H]1O[C@H](COP(=O)(O)O)[C@@H](O)[C@H]1O`, the affinity in data set [1] corresponds to a Ki of 62 µM.

Take `Nc1c(C(=O)O)cnn1[C@@H]1O[C@H](COP(=O)(O)O)[C@@H](O)[C@H]1O`: the Ki in data set [1] amounted to 6 µM.

For the molecule `O=[N+]([O-])c1cn([C@@H]2O[C@H](COP(=O)(O)O)[C@@H](O)[C@H]2O)cn1`, the Ki in data set [1] was found to be 1.3 µM.

For `O=[N+]([O-])c1ccn([C@@H]2O[C@H](COP(=O)(O)O)[C@@H](O)[C@H]2O)c1`, the IC50 (as a rule, the concentration at which inhibition is half-maximal) in data set [1] was greater than 100 µM.

The molecule `Nc1c([N+](=O)[O-])cnn1[C@@H]1O[C@H](COP(=O)(O)O)[C@@H](O)[C@H]1O` gave a Ki in data set [1] of 0.39 µM.

Values taken from ChEMBL document CHEMBL1140870, “Interrogating the mechanism of a tight binding inhibitor of AIR carboxylase” (Bioorg Med Chem, 2009).
